Assays:
[1] = system: HT1376 urothelial cancer cells; test: In vitro cell cytotoxicity assay of actinium-225 radioconjugates (CellTiter-Glo); assay type: cell-based; details: compound radiolabeled with 225Ac, 24 hours treatment, 4-5 days regrowth, cell viability
Method: Cytotoxicity to actinium-225 radioconjugates was assessed in HT1376 urothelial cancer cells. Cells were seeded in 96-well plates at densities of 250 to 1000 cells per well two days prior to treatment. On the day of treatment actinium-225 radioconjugates were diluted in culture medium to concentrations ranging from 0.0001 to 100 uCi/mL and treatment solutions were incubated with cells for 24 hours. At the end of the treatment period, the treatment solution was removed, and fresh culture medium was replenished for the regrowth period of the assay that lasted 4-5 days. At the end of the regrowth period the culture medium was removed and viability was assessed by CellTiter-Glo (Promega, Waltham MA) luminescent assay and the plates were read on a Perkin Elmer Enspire multimode plate reader. Data were normalized to treatment controls and plotted as non-linear sigmoidal dose response curves to determine the effective concentration for 50% reduction in cell viability.

[2] = Thermal stability at 75° C. in 0.9% saline by HPLC; assay type: physicochemical; details: 1 mg/mL, 0.9% Saline solution, 60 minutes, FIG. 7
Method: The thermal stability of an exemplary compound, C215, was analyzed at a concentration of 1 mg/mL at 75° C. in 0.9% Saline solution. A heating plate was set to 75° C. and the sample was heated for a period of one hour. The vial was shaken prior to collecting […] at 5, 10, 15, 30 and 60 minute time intervals. The % parent remaining was analyzed by HPLC using the following system and method: Analytical Agilent 1100 HPLC system using a 4.6×250 mm, 300 Angstrom, BEH300, […], Xbridge C18 column at […]. The solvent system consisted of A=Water+0.1% TFA, B=Acetonitrile+0.1% TFA. The gradient consisted of 5% to 70% B over 15 minutes, then the column was washed and equilibrated to initial conditions.

C215 (CEYDEEFFTALKRLRGGDICYYIKKKFKKVPKLCIEEILDKLGC) [Compound C215]
EC50 (microcurie/milliliter) for Ac-225 radioconjugates [1]: 0.086 microcurie/milliliter | Thermal stability (% parent remaining) [2]: remain stable
